According to patent publication US12447156B2, “Treating progressive familial intrahepatic cholestasis (PFIC) with IBAT inhibitors” (ALBIREO AB, priority 2020, dated 2025):

System: children with PFIC
Assay: Pooled analysis of PEDFIC 1 and PEDFIC 2 (up to 48 weeks): efficacy, sleep, responders vs nonresponders
Type: in vivo, human
Description: This example describes key outcomes with odevixibat in children with PFIC1 (familial intrahepatic cholestasis 1 [FIC1] deficiency) or PFIC2 ((bile salt export pump [BSEP] deficiency) based on pooled analysis of data from the phase 3 PEDFIC 1 (P1; NCT03566238) and PEDFIC 2 (P2; NCT03659916) studies. This pooled analysis covers up to 48 weeks of odevixibat treatment from P1 and through the planned P2 interim data cut. The following outcomes are described: change in serum bile acids (sBAs), change in pruritus score (measured using the PRUCISION scale; range: 0-4), evaluation of growth and sleep parameters, and safety monitoring. Mean changes in autotaxin (linked to cholestatic pruritus intensity) and plasma 7α-hydroxy-4-cholesten-3-one (p-C4; marker of bile acid synthesis) levels were also summarized.
Patient sleep was evaluated based on caregiver report using the PRUCISION scale and via the clinician- or caregiver-reported Global Impression of Change (CGIC or CaGIC, respectively) sleep scales. Treatment response was defined as an sBA response (sBAs<65 or <102 μmol/L for patients with PFIC1 and PFIC2, respectively) or a pruritus response (a ≥1-point drop from baseline in pruritus score). Mean decreases in caregiver-reported percentage of days with scratching associated with bleeding, needing help falling asleep, and needing soothing were greater among Rs vs NRs (Table 10). At week 48, clinicians and caregivers reported that ≥88% of Rs had moderately or very much better sleep since starting odevixibat (Table 10).
Using pooled data from these studies, changes in parameters of cholestasis, pruritus, and hepatic laboratory markers in patients who responded to odevixibat treatment (Rs) vs treatment nonresponders (NRs). Two responder definitions were examined: 1) sBA response (i.e., sBAs<65 or <102 μmol/L for PFIC1 and PFIC2, respectively) and 2) sBA response or pruritus response (i.e., a ≥1-point drop from baseline in PRUCISION score).

[1] = patients with liver enzyme data at baseline
[2] = patients with liver enzyme data at week 4
[3] = patients with liver enzyme data at week 24
[4] = patients with liver enzyme data at week 48
[5] = pooled P1+P2, all odevixibat-treated patients
[6] = pooled P1+P2, baseline to weeks 37-48
[7] = sBA or pruritus response No, week 24, n 21
[8] = sBA or pruritus response No, weeks 1-4, n 28
[9] = sBA or pruritus response No, weeks 21-24, n 22
[10] = sBA or pruritus response No, weeks 45-48, n 2
[11] = sBA or pruritus response Yes, weeks 1-4, n 47
[12] = sBA or pruritus response Yes, weeks 21-24, n 34
[13] = sBA or pruritus response Yes, weeks 45-48, n 18
[14] = week 4, sBA or Pruritus Response No
[15] = week 4, sBA or Pruritus Response Yes
[16] = week 24, sBA or Pruritus Response No
[17] = week 24, sBA or Pruritus Response Yes
[18] = week 48, sBA or Pruritus Response No
[19] = week 48, sBA or Pruritus Response Yes

CCCCC1(CCCC)CN(c2ccccc2)c2cc(SC)c(OCC(=O)N[C@@H](C(=O)N[C@@H](CC)C(=O)O)c3ccc(O)cc3)cc2S(=O)(=O)N1 [Odevixibat, 1,1-dioxo-3,3-dibutyl-5-phenyl-7-methylthio-8-(N-{(R)-α-[N-((S)-1-carboxypropyl)carbamoyl]-4-hydroxybenzyl}carbamoylmethoxy)-2,3,4,5-tetrahydro-1,2,5-benzothiadiazepine]
sBA or pruritus responders, n (responder rate [n/(n + m)] * 100) [1]: 48 (63) n (%) | sBA responders, n (responder rate [n/(n + m)] * 100) [1]: 24 (39) n (%) | sBA or pruritus responders, n (responder rate [n/(n + m)] * 100) [2]: 43 (61) n (%) | sBA responders, n (responder rate [n/(n + m)] * 100) [2]: 23 (39) n (%) | sBA or pruritus responders, n (responder rate [n/(n + m)] * 100) [3]: 31 (62) n (%) | sBA responders, n (responder rate [n/(n + m)] * 100) [3]: 19 (40) n (%) | sBA or pruritus responders, n (responder rate [n/(n + m)] * 100) [4]: 18 (75) n (%) | sBA responders, n (responder rate [n/(n + m)] * 100) [4]: 15 (63) n (%) | mean change from baseline to week 48 in alanine aminotransferase (ALT) [5]: −82 U/L | mean change from baseline to week 48 in total bilirubin [5]: -18 µmol/L | mean change in height Z score (pooled P1+P2, baseline to week 48): 0.5 | mean change in observer-reported percentage of days needing help falling asleep [6]: −52% | mean change in observer-reported percentage of days needing soothing [6]: −51% | mean change in observer-reported percentage of days seeing blood due to scratching [6]: −25% | mean change in observer-reported percentage of days sleeping with caregiver [6]: −40% | patients who met sBA response criteria (pooled P1+P2, during the analysis period, regardless of genotype): ≥ 50% | mean change from baseline in sBAs (pooled P1+P2, end of the analysis period (up to 48 weeks), n=24): -213 µmol/L | mean change in pruritus score (pooled P1+P2, end of the analysis period (up to 48 weeks), n=32): −1.4 | mean change in sBAs (pooled P1+P2, four weeks after starting odevixibat, n=68, baseline 250): -88 µmol/L | mean change in pruritus score (pooled P1+P2, over the first 4-week period, n=75, baseline 2.9): −0.7 | mean positive pruritus assessments (PPAs) (pooled P1+P2, patients with PFIC1): 48% | mean positive pruritus assessments (PPAs) (pooled P1+P2, patients with PFIC2 (including BSEP subtypes 1 and 2)): above 60% | mean height Z score (pooled P1+P2, week 48, n=20, baseline −1.9 (n=75)): −0.8 | mean weight Z score (pooled P1+P2, week 48, n=21, baseline −1.1 (n=75)): −0.0 | rate of sBA or pruritus responders (pooled P1+P2, weeks 0-24): 57% | rate of sBA responders (pooled P1+P2, weeks 0-24): 31% | rate of sBA or pruritus responders (pooled P1+P2, weeks 25-36): 60% | rate of sBA responders (pooled P1+P2, weeks 25-36): 48% | rate of sBA or pruritus responders (pooled P1+P2, weeks 37-48): 65% | rate of sBA responders (pooled P1+P2, weeks 37-48): 59% | CGIC sleep, moderately or very much better (sBA or pruritus response No, week 4, n 26): 30.8% | CaGIC sleep, moderately or very much better (sBA or pruritus response No, week 4, n 28): 25.0% | CGIC sleep, moderately or very much better [7]: 33.3% | CaGIC sleep, moderately or very much better [7]: 23.8% | CaGIC sleep, moderately or very much better (sBA or pruritus response No, week 48, n 3): 33.3% | CGIC sleep, moderately or very much better (sBA or pruritus response No, week 48, n 4): 25.0% | % Days needing help falling asleep, mean change from baseline [8]: −10.4% | % Days needing soothing, mean change from baseline [8]: −6.0% | % Days with scratching associated with bleeding, mean change from baseline [8]: −6.5% | % days sleeping with caregiver, mean change from baseline [8]: −3.1% | Number of awakenings, mean change from baseline [8]: 1.3 | % Days needing help falling asleep, mean change from baseline [9]: −4.9% | % Days needing soothing, mean change from baseline [9]: 7.8% | % Days with scratching associated with bleeding, mean change from baseline [9]: 3.2% | % days sleeping with caregiver, mean change from baseline [9]: 3.1% | Number of awakenings, mean change from baseline [9]: 1.5 | % Days needing help falling asleep, mean change from baseline [10]: −1.8% | % Days needing soothing, mean change from baseline [10]: 4.2% | % Days with scratching associated with bleeding, mean change from baseline [10]: 12.5% | % days sleeping with caregiver, mean change from baseline [10]: 0.0% | Number of awakenings, mean change from baseline [10]: −4.3 | CaGIC sleep, moderately or very much better (sBA or pruritus response Yes, week 4, n 39): 48.7% | CGIC sleep, moderately or very much better (sBA or pruritus response Yes, week 4, n 42): 57.1% | CaGIC sleep, moderately or very much better (sBA or pruritus response Yes, week 24, n 27): 70.4% | CGIC sleep, moderately or very much better (sBA or pruritus response Yes, week 24, n 32): 59.4% | CaGIC sleep, moderately or very much better (sBA or pruritus response Yes, week 48, n 15): 93.3% | CGIC sleep, moderately or very much better (sBA or pruritus response Yes, week 48, n 18): 88.9% | % Days needing help falling asleep, mean change from baseline [11]: −23.1% | % Days needing soothing, mean change from baseline [11]: −22.5% | % Days with scratching associated with bleeding, mean change from baseline [11]: −16.8% | % days sleeping with caregiver, mean change from baseline [11]: −23.1% | Number of awakenings, mean change from baseline [11]: -−3.1 | % Days needing help falling asleep, mean change from baseline [12]: −56.1% | % Days needing soothing, mean change from baseline [12]: −58.8% | % Days with scratching associated with bleeding, mean change from baseline [12]: −30.9% | % days sleeping with caregiver, mean change from baseline [12]: −48.5% | Number of awakenings, mean change from baseline [12]: -−1.9 | % Days needing help falling asleep, mean change from baseline [13]: −73.0% | % Days needing soothing, mean change from baseline [13]: −74.6% | % Days with scratching associated with bleeding, mean change from baseline [13]: −41.5% | % days sleeping with caregiver, mean change from baseline [13]: −69.1% | Number of awakenings, mean change from baseline [13]: −11.0 | ALT, change from baseline, Mean (SE) (week 4, sBA Response No): 21 (16) U/L | Total bilirubin, change from baseline, Mean (SE) (week 4, sBA Response No): −10 (9) μmol/L | ALT, change from baseline, Mean (SE) (week 4, sBA Response Yes): −28 (37) U/L | Total bilirubin, change from baseline, Mean (SE) (week 4, sBA Response Yes): −8 (4) μmol/L | ALT, change from baseline, Mean (SE) [14]: 9 (4) U/L | Total bilirubin, change from baseline, Mean (SE) [14]: −14 (11) μmol/L | ALT, change from baseline, Mean (SE) [15]: −2 (24) U/L | Total bilirubin, change from baseline, Mean (SE) [15]: −6 (4) μmol/L | ALT, change from baseline, Mean (SE) (week 24, sBA Response No): −10 (11) U/L | Total bilirubin, change from baseline, Mean (SE) (week 24, sBA Response No): −19 (10) μmol/L | ALT, change from baseline, Mean (SE) (week 24, sBA Response Yes): −67 (42) U/L | Total bilirubin, change from baseline, Mean (SE) (week 24, sBA Response Yes): −23 (8) μmol/L | ALT, change from baseline, Mean (SE) [16]: 5 (8) U/L | Total bilirubin, change from baseline, Mean (SE) [16]: −23 (13) μmol/L | ALT, change from baseline, Mean (SE) [17]: −56 (27) U/L | Total bilirubin, change from baseline, Mean (SE) [17]: −19 (7) μmol/L | ALT, change from baseline, Mean (SE) (week 48, sBA Response No): −32 (22) U/L | Total bilirubin, change from baseline, Mean (SE) (week 48, sBA Response No): −6 (14) μmol/L | ALT, change from baseline, Mean (SE) (week 48, sBA Response Yes): −112 (57) U/L | Total bilirubin, change from baseline, Mean (SE) (week 48, sBA Response Yes): −25 (11) μmol/L | ALT, change from baseline, Mean (SE) [18]: −5 (15) U/L | Total bilirubin, change from baseline, Mean (SE) [18]: 1 (20) μmol/L | ALT, change from baseline, Mean (SE) [19]: −108 (48) U/L | Total bilirubin, change from baseline, Mean (SE) [19]: −25 (9) μmol/L | responders with moderately or very much better sleep since starting odevixibat (clinician and caregiver reported) (week 48, patients with sBA response or pruritus response): ≥ 88%
